According to US8846713B2, “Fused heterocyclic compounds as phosphodiesterases (PDEs) inhibitors” (Takeda Pharmaceutical Company Limited, priority 2010, dated 2014):
Counter-ions that a name gives are not always drawn.

Biological target: T1, Human PDE10A enzyme (Homo sapiens, UniProt Q9Y233)
T1 construct: transfected with the full-length gene; His-tag; made in house; host or cells: Sf9 or COS-7 cells
Experiment: PDE enzyme inhibition, SPA (Scintillation Proximity Assay) with [3H]cGMP
Assay type: biochemical
Conditions: [3H]cGMP substrate; for inhibition at 1 µM: compound 1 μM, read-out: Percent inhibition (1 μM); for inhibition at 10 µM: compound 10 μM, read-out: Percent inhibition (10 μM)
Procedure: Human PDE10A enzyme was generated from Sf9 or COS-7 cells transfected with the full-length gene. Cloned enzyme was extracted from homogenized cell pellets. The extracted enzyme from sf9 cells was partially purified using His-tag affinity column. The enzyme was stored at −70° C. until use. PDE activity was measured using a SPA (Scintillation Proximity Assay) (GE Healthcare). To evaluate the inhibitory activity, 10 μL of serial diluted compounds were incubated with 20 μL of PDE enzyme in assay buffer (50 mM HEPES-NaOH, 8.3 mM MgCl2, 1.7 mM EGTA, 0.1% BSA (pH 7.4)) for 30 min. at room temperature. Final concentration of DMSO in the assay was 1 percent as compounds were tested in duplicate in 96-well half-area plates (Corning). To start the reaction, 10 μL of substrate [^3H] cGMP (25 or 50 nM; enclosed in SPA kits from GE Healthcare or purchased from PerkinElmer, respectively) was added for a final assay volume of 40 μL. After 60 min incubation at room temperature, yttrium SPA beads containing Zinc sulphate were added (20 μL at 6 mg/mL) to terminate the PDE reaction. After being settled for 60 min, assay plates were counted in a scintillation counter (PerkinElmer) to allow calculation of inhibition rate. Inhibition rate was calculated on the basis of 0% control wells with DMSO and 100% control wells without enzyme.

T1 sequence (Q9Y233 267-1055): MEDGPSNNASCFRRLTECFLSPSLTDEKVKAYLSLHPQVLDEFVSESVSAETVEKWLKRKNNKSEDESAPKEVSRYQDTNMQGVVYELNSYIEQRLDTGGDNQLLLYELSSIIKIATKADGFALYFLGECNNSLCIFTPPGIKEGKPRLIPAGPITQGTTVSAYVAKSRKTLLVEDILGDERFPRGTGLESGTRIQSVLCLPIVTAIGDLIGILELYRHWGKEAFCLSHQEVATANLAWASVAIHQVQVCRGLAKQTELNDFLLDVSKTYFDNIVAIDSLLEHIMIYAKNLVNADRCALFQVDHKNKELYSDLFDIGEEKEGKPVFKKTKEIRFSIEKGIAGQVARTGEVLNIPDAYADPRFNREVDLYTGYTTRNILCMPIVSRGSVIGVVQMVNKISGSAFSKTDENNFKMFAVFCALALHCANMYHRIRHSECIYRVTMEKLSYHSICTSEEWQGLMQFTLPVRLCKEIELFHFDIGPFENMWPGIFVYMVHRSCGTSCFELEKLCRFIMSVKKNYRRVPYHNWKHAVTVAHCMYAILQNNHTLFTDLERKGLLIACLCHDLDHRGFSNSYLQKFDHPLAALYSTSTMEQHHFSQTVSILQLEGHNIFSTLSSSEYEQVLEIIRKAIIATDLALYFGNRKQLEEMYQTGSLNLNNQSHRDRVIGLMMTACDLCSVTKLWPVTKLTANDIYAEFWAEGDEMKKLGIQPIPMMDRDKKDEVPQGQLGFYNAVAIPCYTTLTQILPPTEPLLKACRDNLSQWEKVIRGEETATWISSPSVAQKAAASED

Row | inhibition at 1 µM | inhibition at 10 µM | inhibition at 0.1 µM (compound 0.1 μM, read-out: Percent inhibition (0.1 μM)) | SMILES
1 | 109% | 106% | – | CCn1c(=O)n(-c2ccc(Oc3nc4cccnc4n3C)cc2)c2nccc(C)c21 [Example 120, 1-ethyl-7-methyl-3-{4-[(3-methyl-3H-imidazo[4,5-b]pyridin-2-yl)oxy]phenyl}-1,3-dihydro-2H-imidazo[4,5-b]pyridin-2-one]
2 | 88% | 98% | – | CCn1c(=O)n(-c2ccc(Oc3nc4cccnc4n3C)cc2)c2nccc(COC(C)=O)c21 [Example 137, (1-ethyl-3-{4-[(3-methyl-3H-imidazo[4,5-b]pyridin-2-yl)oxy]phenyl}-2-oxo-2,3-dihydro-1H-imidazo[4,5-b]pyridin-7-yl)methyl acetate]
3 | 100% | 102% | – | CCn1c(=O)n(-c2ccc(Oc3nc4cccnc4n3C)cc2)c2ncc(C#N)cc21 [Example 108, 1-ethyl-3-{4-[(3-methyl-3H-imidazo[4,5-b]pyridin-2-yl)oxy]phenyl}-2-oxo-2,3-dihydro-1H-imidazo[4,5-b]pyridine-6-carbonitrile]
4 | 98% | 100% | – | CC(C)n1c(=O)n(-c2ccc(Oc3nc4cccnc4n3C)cc2)c2ncc(Cl)cc21 [Example 126, 6-chloro-1-(1-methylethyl)-3-{4-[(3-methyl-3H-imidazo[4,5-b]pyridin-2-yl)oxy]phenyl}-1,3-dihydro-2H-imidazo[4,5-b]pyridin-2-one]
5 | 94% | 99% | – | Cc1ccnc2c1n(C)c(=O)n2-c1ccc(Oc2nc3cccnc3n2C)cc1 [Example 135, 1,7-dimethyl-3-{4-[(3-methyl-3H-imidazo[4,5-b]pyridin-2-yl)oxy]phenyl}-1,3-dihydro-2H-imidazo[4,5-b]pyridin-2-one]
6 | 104% | 101% | – | CCn1c(=O)n(-c2ccc(Oc3nc4cccnc4n3C)cc2)c2ncc(F)cc21 [Example 133, 1-ethyl-6-fluoro-3-{4-[(3-methyl-3H-imidazo[4,5-b]pyridin-2-yl)oxy]phenyl}-1,3-dihydro-2H-imidazo[4,5-b]pyridin-2-one]
7 | 101% | 99% | – | Cn1c(Oc2ccc(-n3c(=O)n(C(F)F)c4cccnc43)cc2)nc2cccnc21 [Example 101]
8 | 97% | 98% | – | CCn1c(=O)n(-c2ccc(Oc3nc4cccnc4n3C)cc2)c2ncccc21 [Example 86, 1-ethyl-3-{4-[(3-methyl-3H-imidazo[4,5-b]pyridin-2-yl)oxy]phenyl}-1,3-dihydro-2H-imidazo[4,5-b]pyridin-2-one]
9 | 95% | 99% | – | CCn1c(=O)n(-c2ccc(Oc3nc4ncccc4n3C)cc2)c2ncccc21 [Example 85, 1-ethyl-3-{4-[(1-methyl-1H-imidazo[4,5-b]pyridin-2-yl)oxy]phenyl}-1,3-dihydro-2H-imidazo[4,5-b]pyridin-2-one]
10 | 100% | 105% | – | Cn1c(Oc2ccc(-n3c(=O)n(C4CC4)c4cccnc43)cc2)nc2cccnc21 [Example 99, 1-cyclopropyl-3-{4-[(3-methyl-3H-imidazo[4,5-b]pyridin-2-yl)oxy]phenyl}-1,3-dihydro-2H-imidazo[4,5-b]pyridin-2-one]
11 | 97% | 98% | – | CCCn1c(=O)n(-c2ccc(Oc3nc4cccnc4n3C)cc2)c2ncccc21 [Example 97, 3-{4-[(3-methyl-3H-imidazo[4,5-b]pyridin-2-yl)oxy]phenyl}-1-propyl-1,3-dihydro-2H-imidazo[4,5-b]pyridin-2-one]
12 | 99% | 101% | – | CC(C)n1c(=O)n(-c2ccc(Oc3nc4cccnc4n3C)cc2)c2ncccc21 [Example 98, 1-(1-methylethyl)-3-{4-[(3-methyl-3H-imidazo[4,5-b]pyridin-2-yl)oxy]phenyl}-1,3-dihydro-2H-imidazo[4,5-b]pyridin-2-one]
13 | 81% | 98% | – | CCn1c(=O)n(-c2ccc(Oc3nc4cccnc4n3C)cc2)c2c1c(C)cc[n+]2[O-] [Example 136, 1-ethyl-7-methyl-3-{4-[(3-methyl-3H-imidazo[4,5-b]pyridin-2-yl)oxy]phenyl}-1,3-dihydro-2H-imidazo[4,5-b]pyridin-2-one 4-oxide]

The next lines start with the compound.

Row | SMILES | inhibition at 1 µM | inhibition at 10 µM | inhibition at 0.1 µM (compound 0.1 μM, read-out: Percent inhibition (0.1 μM))
14 | CCn1c(=O)n(-c2ccc(Oc3nc4ccccc4n3CCO)cc2)c2ncccc21 [Example 39, 1-ethyl-3-(4-{[1-(2-hydroxyethyl)-1H-benzimidazol-2-yl]oxy}phenyl)-1,3-dihydro-2H-imidazo[4,5-b]pyridin-2-one] | 100% | 101% | –
15 | CCn1c(=O)n(-c2ccc(Nc3nc4ccc(F)cc4o3)cc2)c2ncccc21 [Example 27, 1-ethyl-3-{4-[(6-fluoro-1,3-benzoxazol-2-yl)amino]phenyl)-1,3-dihydro-2H-imidazo[4,5-b]pyridin-2-one] | – | – | 102%
16 | CCn1c(=O)n(-c2ccc(Oc3nc4ccccc4n3C)cc2)c2ncc(F)cc21 [Example 132, 1-ethyl-6-fluoro-3-{4-[(1-methyl-1H-benzimidazol-2-yl)oxy]phenyl}-1,3-dihydro-2H-imidazo[4,5-b]pyridin-2-one] | 104% | 107% | –
17 | Cn1c(Oc2ccc(N3C(=O)C(C)(C)c4cccnc43)cc2)nc2ccccc21 [Example 102, 3,3-dimethyl-1-{4-[(1-methyl-1H-benzimidazol-2-yl)oxy]phenyl}-1,3-dihydro-2H-pyrrolo[2,3-b]pyridin-2-one] | 99% | 106% | –
18 | CCn1c(=O)n(-c2ccc3c(c2)CCN3c2nc3ccccc3[nH]2)c2ncccc21 [Example 13, 3-[1-(1H-benzimidazol-2-yl)-2,3-dihydro-1H-indol-5-yl]-1-ethyl-1,3-dihydro-2H-imidazo[4,5-b]pyridin-2-one] | 100% | 101% | –
19 | CCn1c(=O)n(-c2ccc(Oc3nc4c(n3C)CCCC4)cc2)c2ncccc21 [Example 112, 1-ethyl-3-{4-[(1-methyl-4,5,6,7-tetrahydro-1H-benzimidazol-2-yl)oxy]phenyl}-1,3-dihydro-2H-imidazo[4,5-b]pyridin-2-one] | 99% | 98% | –
20 | CC1(C)C(=O)N(c2ccc(Oc3nc4ccccc4[nH]3)cc2)c2ncccc21 [Example 9, 1-[4-(1H-benzimidazol-2-yloxy)phenyl]-3,3-dimethyl-1,3-dihydro-2H-pyrrolo[2,3-b]pyridin-2-one dihydrochloride] | 99% | 99% | –
21 | O=c1[nH]c2cccnc2n1-c1ccc(Nc2nc3ccccc3o2)cc1 [Example 1, 3-[4-(1,3-benzoxazol-2-ylamino)phenyl]-1,3-dihydro-2H-imidazo[4,5-b]pyridin-2-one] | 98% | 100% | –
22 | CCn1c(=O)n(-c2ccc(Oc3nc4ccccc4n3C)cc2)c2ncc(C#N)cc21 [Example 109, 1-ethyl-3-{4-[(1-methyl-1H-benzimidazol-2-yl)oxy]phenyl}-2-oxo-2,3-dihydro-1H-imidazo[4,5-b]pyridine-6-carbonitrile] | 99% | 102% | –
23 | CCn1c(=O)n(-c2ccc3c(c2)CCN3c2nc3cccnc3[nH]2)c2ncccc21 [Example 71, 1-ethyl-3-[1-(3H-imidazo[4,5-b]pyridin-2-yl)-2,3-dihydro-1H-indol-5-yl]-1,3-dihydro-2H-imidazo[4,5-b]pyridin-2-one] | 99% | 97% | –
24 | CCn1c(=O)n(-c2ccc(Oc3cn4ccccc4n3)cc2)c2ncccc21 [Example 31, 1-ethyl-3-[4-(imidazo[1,2-a]pyridin-2-yloxy)phenyl]-1,3-dihydro-2H-imidazo[4,5-b]pyridin-2-one] | 99% | 98% | –
25 | CCn1c(=O)n(-c2ccc(Oc3cn4ccccc4n3)cc2)c2ncc(C)cc21 [Example 124, 1-ethyl-3-[4-(imidazo[1,2-a]pyridin-2-yloxy)phenyl]-6-methyl-1,3-dihydro-2H-imidazo[4,5-b]pyridin-2-one] | 99% | 99% | –
26 | CCn1c(=O)n(-c2ccc3c(c2)CCN3c2nc3ccccc3n2C)c2ncccc21 [Example 48, 1-ethyl-3-[1-(1-methyl-1H-benzimidazol-2-yl)-2,3-dihydro-1H-indol-5-yl]-1,3-dihydro-2H-imidazo[4,5-b]pyridin-2-one] | 96% | 100% | –
27 | CCn1c(=O)n(-c2ccc(Oc3nc4ccccc4n3CC(C)(C)O)cc2)c2ncccc21 [Example 40, 1-ethyl-3-(4-{[1-(2-hydroxy-2-methylpropyl)-1H-benzimidazol-2-yl]oxy}phenyl)-1,3-dihydro-2H-imidazo[4,5-b]pyridin-2-one] | 99% | 101% | –
28 | CCn1c(=O)n(-c2ccc(Oc3nc4ccncc4[nH]3)cc2)c2ncccc21 [Example 115, 1-ethyl-3-[4-(3H-imidazo[4,5-c]pyridin-2-yloxy)phenyl]-1,3-dihydro-2H-imidazo[4,5-b]pyridin-2-one] | 100% | 97% | –
